From patent publication US12534429B2, “Heterodimers of glutamic acid” (Molecular Insight Pharmaceuticals, Inc., priority 2006, dated 2026)

Legend:
[1] = system: PSMA positive LNCaP xenografts; type: in vivo, male NCr Nude mice
Method: Tissue biodistribution of I^23I-MIP-1072 (2 μCi/mouse, >1,000 mCi/μmole) was assessed in selected tissues from LNCaP (PSMA positive) tumor bearing nude mice. Results are expressed as the percent of the injected dose per gram of the selected tissues (% ID/g).
(§1) FIG. 21 Uptake of ^23I-MIP-1072 in LNCaP and PC3 xenograft bearing mice.
(§2) A quantitative analysis of the tissue distribution of ^123I-MIP-1072 was performed in separate groups of male NCr Nude^−/− mice bearing PSMA positive LNCaP xenografts (approximately 100-200 mm^3) administered via the tail vein as a bolus injection (approximately 2 μCi/mouse) in a constant volume of 0.05 ml. The animals (n=5/time point) were euthanized by asphyxiation with carbon dioxide at 0.25, 1, 2, 4, 8, and 24 hours post injection. Tissues (blood, heart, lungs, liver, spleen, kidneys, adrenals, stomach, large and small intestines (with contents), testes, skeletal muscle, bone, brain, adipose, and tumor) were dissected, excised, weighed wet, transferred to plastic tubes and counted in an automated γ-counter (LKB Model 1282, Wallac Oy, Finland). […] MIP-1072, uptake and exposure was greatest in the kidney and LNCaP xenograft which express high levels of PSMA. Peak uptake in the kidney was 158±46% ID/g at 2 hours and the LNCaP xenograft was 17±6% ID/g at 1 hours (FIG. 20).

LnCap cells = experiment: Rate of uptake and internalization (acid wash assay) of MIP-1072 in LNCaP cells; type: cell-based, human; conditions: 100 nM; for internalization in LNCaP cells: 4° C. and 37° C.
Method: In order to confirm the results of the Scatchard analysis of FIG. 7 indicating MIP-1072 internalization into LNCaP cells, the rate of uptake of MIP-1072 in LNCaP cells was monitored. Each well was dosed with 100 nM MIP-1072 (2 uCi/well) at 4° C. and 37° C. Binding to PSMA reached equilibrium after 15 min as evidenced by the plateau in the curve at 4° C. The cells incubated at 37° C. continued to internalize MIP-1072 after equilibrium had been reached.
The ability of MIP-1072 to internalize in LNCaP cells was confirmed by an acid wash assay (FIG. 19). LNCaP cells were incubated in HBS with 100 nM ^123I-MIP-1072 for 0-2 hours at 4 and 37° C. At the indicated time the media was removed and the cells were incubated in mild acid buffer (50 mM glycine, 150 mM NaCl, pH 3.0) at 4° C. for 5 minutes. After the brief incubation the cells were centrifuged at 20,000×g for 5 minutes. The supernatant and cell pellet were counted in a gamma counter. In order to confirm the results of the saturation binding analysis indicating MIP-1072 internalization into LNCaP cells, we monitored the rate of uptake of MIP-1072 in LNCaP cells. Each well was dosed with 100 nM MIP-1072 (2 uCi/well) at 4° C. and 37° C. Binding to PSMA reached equilibrium after 15 min as evidenced by the plateau in the curve at 4° C. The cells incubated at 37° C. continued to internalize MIP-1072 after equilibrium had been reached. […] (FIG. 19).

[2] = system: PC3 tumors which do not express PSMA; experiment: Tumor uptake of 123I-MIP-1072 in PC3 xenograft bearing mice; type: in vivo, male NCr Nude mice; conditions: 1 hour post injection
Method: as §1, §2

[3] = system: PC3 (PSMA negative) tumors; experiment: Tissue biodistribution of I-131 MIP 1072 in xenograft tumored mice, PC3 tumors; type: in vivo; conditions: I-131-labeled
Description: (§3) The lead compound, MIP 1072, was I-131-labeled for tissue distribution studies in mice with both LNCaP (PSMA positive) and PC3 (PSMA negative) tumors implanted. The compound was radiolabeled by the route shown below.
(§4) A graph depicting the mice distribution is shown below (FIG. 12).

PSMA on LNCaP cells [4] = biological target: T1, PSMA on LNCaP cells (Homo sapiens, UniProt Q04609); experiment: In vitro cell binding: competition with I-131 DCIT for binding to PSMA on LNCaP cells; conditions: LnCap cells, dose curves; read-out: IC50 values versus I-131 DCIT
T1 construct: LNCaP human prostate cancer cells were obtained from American Type Culture Collection; host or cells: LNCaP human prostate cancer cells
Method: In vitro cold screening assays verses I-131 DCIT. LNCaP and PC3 human prostate cancer cells were obtained from American Type Culture Collection, Rockville, MD LNCaP cells were maintained in RPMI-1640 medium supplemented with 10% fetal bovine serum (FBS). PC3 cells were grown in F12K medium supplemented with 10% FBS. Binding of the radiolabeled compound and competition with cold derivatives to LNCaP and PC-3 cells was performed according to the methods of Tang et al. (Tang, H.; Brown, M.; Ye, Y.; Huang, G.; Zhang, Y.; Wang, Y.; Zhai, H.; Chen, X.; Shen, T. Y.; Tenniswood, M., Prostate targeting ligands based on N-acetylated alpha-linked acidic dipeptidase, Biochem. Biophys. Res. Commun. 2003, 307, 8-14) with appropriate modifications. Cells were plated in 12-well plates at approximately 4×10^5 cells/well and incubated for 48 hours in a humidified incubator at 37° C./5% carbon dioxide prior to addition of compound. Each unique SAAC-urea-Glu conjugate was prepared and diluted in serum-free cell culture medium containing 0.5% bovine serum albumin (BSA) in combination with 3 nM I-131 DCIT (known inhibitor). Total binding was determined by incubating I-131 DCIT without test compound. Plates were incubated at room temperature for 1 hour. Cells were removed from the plates by gently pipeting and transferred to eppendorff tubes. Samples were microcentrifuged for 15 seconds at 10K×g. The medium was aspirated and the pellet was washed twice by dispersal in fresh assay medium followed by microcentrifugation. Cell binding of I-131 DCIT was determined by counting the cell pellet in an automated gamma counter. […] The control compounds are depicted below.
The ability of non-radioactive analogs to compete with ^131I-DCIT for binding to PSMA was tested in the PSMA positive human prostate cancer cell line, LNCaP cells. LNCaP cells (300,000 cells/well) were incubated for 1 hour with 3 nM [^131I]-DCIT in the presence of 1-10,000 nM MIP-1072 in RPMI-1640 medium supplemented with 0.5% bovine serum albumin, then washed and counted in a gamma counter. All documents cited in this specification including patent applications are incorporated by reference in their entirety.

[5] = Microsome assay (stability in rat liver microsomes); type: in vitro ADME; conditions: 37° C., 60 min incubation; MIP-1072 50 μM, phenacetin 100 μM
Method: Pooled male rat liver microsomes (1 mg/mL, BD Biosciences), NADPH regenerating system (1.3 mM NADP, 3.3 mM glucose 6-phosphate and 0.4 U/mL glucose 6-phosphate dehydrogenase, BD Biosciences) and test compound (50 μM MIP-1072, 50 μM DCT, and 100 μM phenacetin) were added to 0.1 M potassium phosphate buffer (pH 7.4) in order to monitor the catastrophic degradation of the test compounds. The mixture was incubated at 37° C. and at the indicated time (0, 15, 60 min) the reaction was stopped by the addition of an equal volume of ice cold methanol (500 μL). The resulting slurry was then centrifuged at 21,000×G for 10 min and the supernatant was collected and injected onto an Agilent LCMS model MSD SL using a 95:5 water:acetonitrile (with 0.1% formic acid) to 40:60 water:acetonitrile (with 0.1% formic acid) gradient and monitoring for the parent ion only in single ion mode. The results, shown in FIGS. 11A and 11B, are expressed as degradation of the parent ion with respect to the 0 min time point.
The stability of MIP-1072 was assessed using rat liver microsomes. MIP-1072 (50 μM) and Phenacetin (100 μM) were incubated with rat liver microsomes at 37° C. for the indicated time. Phenacetin was used as a control substance that is known to be metabolized. MIP-1072 was not degraded by the rat liver microsomes during the incubation period. […]

PSMA on LNCaP cells [6] = biological target: T1, PSMA on LNCaP cells; experiment: Saturation binding analysis of radiolabeled MIP-1072 in LNCaP cells
Method: The affinity constant (Kd) of MIP-1072 was determined by saturation binding analysis (FIG. 18). LNCaP cells were incubated for 1 hour with 30-100,000 pM ^131I-MIP-1072 in HBS (50 mM Hepes, pH 7.5, 0.9% sodium chloride) at either 4° C. or 37° C. in the absence or presence of 10 μM unlabeled MIP-1072 (to determine non-specific binding). Cells were then washed and the amount of radioactivity was measured on a gamma counter. Specific binding was calculated as the difference between total binding and nonspecific binding. […] The Bmax, however, was greater at 37° C. than at 4° C.; […] fmol/10^6 cells, respectively, indicating internalization of MIP-1072. The results below are representative of two independent analyses.

[7] = system: LNCaP (PSMA positive) tumors; experiment: Tissue biodistribution of I-131 MIP 1072 in xenograft tumored mice, LNCaP tumors; type: in vivo; conditions: I-131-labeled
Description: as §3, §4

T1 sequence (Q04609 whole entry): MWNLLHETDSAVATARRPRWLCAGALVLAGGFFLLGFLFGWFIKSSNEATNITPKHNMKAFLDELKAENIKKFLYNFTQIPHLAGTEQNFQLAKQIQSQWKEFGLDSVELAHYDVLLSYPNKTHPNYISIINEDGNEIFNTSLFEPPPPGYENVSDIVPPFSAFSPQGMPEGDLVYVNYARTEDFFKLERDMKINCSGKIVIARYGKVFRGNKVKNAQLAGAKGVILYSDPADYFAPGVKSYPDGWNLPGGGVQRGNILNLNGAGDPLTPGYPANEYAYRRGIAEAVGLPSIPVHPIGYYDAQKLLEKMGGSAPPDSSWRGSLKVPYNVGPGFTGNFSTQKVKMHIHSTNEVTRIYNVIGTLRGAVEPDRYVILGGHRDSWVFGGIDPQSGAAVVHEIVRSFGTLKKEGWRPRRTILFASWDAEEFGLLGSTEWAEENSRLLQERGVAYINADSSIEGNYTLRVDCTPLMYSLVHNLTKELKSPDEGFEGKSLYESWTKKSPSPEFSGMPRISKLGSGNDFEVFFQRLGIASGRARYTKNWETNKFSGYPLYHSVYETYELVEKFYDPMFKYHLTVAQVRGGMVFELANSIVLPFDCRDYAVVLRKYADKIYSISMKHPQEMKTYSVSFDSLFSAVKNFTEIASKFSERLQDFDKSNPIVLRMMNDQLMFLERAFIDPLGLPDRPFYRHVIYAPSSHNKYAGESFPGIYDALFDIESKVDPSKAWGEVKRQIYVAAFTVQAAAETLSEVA

| IC50 (PSMA on LNCaP cells [4]) [nM] | degradation of the parent by rat liver microsomes [5] | Bmax (PSMA on LNCaP cells [6]; 4° C.) | Kd (PSMA on LNCaP cells [6]; 4° C., nonlinear regression) [nM] | Bmax (PSMA on LNCaP cells [6]; 37° C.) | Kd (PSMA on LNCaP cells [6]; 37° C.) [nM] | Structure (SMILES) | tumor and kidney uptake after pretreatment with PMPA ([1]; 50 mg/kg PMPA 5 minutes prior to injection, 1 hour post injection) | localization to PSMA expressing LNCaP tumors ([1]; 1 hour post injection) | peak uptake in the LNCaP xenograft ([1]; at 1 hours post injection, tail vein bolus) [% ID/g] | internalization in LNCaP cells (LnCap cells) | localization to PC3 tumors [2] | activity in PC3 (PSMA negative) tumors [3] | time at which binding to PSMA reached equilibrium (LnCap cells; 4° C., LNCaP cells) [min] | uptake in LNCaP (PSMA positive) tumors [7] |
| --- | --- | --- | --- | --- | --- | --- | --- | --- | --- | --- | --- | --- | --- | --- |
|  |  |  |  |  |  | O=C(O)CC[C@H](NC(=O)N[C@@H](CCCCNCc1ccc([123I])cc1)C(=O)O)C(=O)O [123I-MIP-1072] | blocked | localization to PSMA expressing LNCaP tumors | 17±6 | internalized at 37 °C but not at 4 °C | not PC3 tumors |  |  |  |
| < 50 | not degraded | 1,490 fmoles/10^6 cells | 4.8 | 4,400 fmol/10^6 cells | 8.1 | O=C(O)CC[C@H](NC(=O)N[C@@H](CCCCNCc1ccc(I)cc1)C(=O)O)C(=O)O [MIP 1072, (S, S)-2-{3-[1-Carboxy-5-(4-iodo-benzylamino)-pentyl]-ureido}-pentanedioic] |  |  |  | internalized |  | very little activity | 15 | significant uptake |
